From patent US20240251785A1, “SMALL MOLECULE ANTAGONISTS AND AGONISTS OF ARTHROPOD KININ RECEPTORS FOR PEST CONTROL” (The Texas A&M University System, priority 2021, published 2024)
Like-named read-outs stand apart in the source and are kept apart here.

Legend:
[1] = tested on: isolated hindguts from females of the mosquito Aedes aegypti; assay: Hindgut contraction inhibition assay; conditions: for effect on hindgut contraction elicited by 1728, in words: compound 100 μmol L^−1, 5 min, then 1728 10 μmol L^−1, 1 h
Experimental: A mosquito colony of Ae. aegypti (Diptera: Culicidae), Liverpool strain, was maintained at 26.5° C. in a 16 h:8 h, light:dark photoperiod and provided with 10% sugar water, as described previously.^31 For the experiment, 3-5-day-old females were used, and the assay was modified based on our previous protocol.^33 A group of six female mosquitoes were cold-anesthetized on a Petri dish placed on ice, where both wings were removed. Mosquitoes became active when the plate was removed from the ice. The dissection dish was filled with Ringer's solution (150 mmol L^−1 NaCl, 25 mmol L^−1 HEPES, 3.4 mmol L^−1 KCl, 7.5 mmol L^−1 NaOH, 1.8 mmol L^−1 NaHCO3. 1 mmol L^−1 MgSO4, 1.7 mmol L^−1 CaCl2 and 5 mmol L^−1 glucose, pH 7.1) at room temperature. To dissect the hindgut of each mosquito, their head and thorax were removed with forceps, and the abdomen was submerged in the Ringer solution. The hindgut, ovaries and Malpighian tubules (MTs), and midgut were taken out by pulling the last segment of the abdomen under the Ringer solution. Then, the ovaries and the majority of the midgut were removed using scissors leaving the intact hindgut and MTs. The isolated tissue was transferred with forceps, gripping on the cuticle of the last segment, into a drop of 30 μL Ringer solution in a 12-well-plate (Greiner Bio-One®, 665,102). After six mosquitoes were dissected as a group, paraffin oil (1-2 mL) was added to each well to cover the saline. The cuticle of the last abdominal segment was drawn out of the Ringer solution into the oil for better observation of the hindgut contraction. The tissues were filmed using an Olympus SZ60 camera (Olympus America Inc., Center Valley, PA, USA) mounted on a dissecting microscope.
First, the hindgut basal contraction rate was recorded by filming each tissue for 60 s. […] After 5 min of incubation at room temperature, 15 μL kinin agonist analog 1728 solution (4×in Ringer solution) was added to the Ringer solution to reach a final concentration of 10 μmol L^−1. After 1 h of incubation, the tissue was filmed again for 60 s.
The contractible hindgut of mosquito consists of a funnel-shaped pylorus located immediately after the posterior midgut, followed by a long, coiled ileum, and a bulbous colon which contains the rectal pads, and a tapering rectal tube at the posterior end.^35 To analyze each video, the hindgut contraction number was counted by observing the contraction occurring at the junction between the pyloric sphincter and the most anterior ileum. The hindgut contraction rate was expressed as the number of contractions observed over 60 s. The fold change in contraction rate was calculated as the contraction rate estimated at 1 h post treatment divided by the basal rate estimated before the treatment with the chemicals. Each treatment was repeated with 30 female mosquitoes independently. All statistical analyses were done by PRISM software (v8, GraphPad). The differences in fold-change of the contraction rates among treatments were analyzed using the nonparametric Kruskal-Wallis test, followed by the Dunn's multiple comparison test. […].

[2] = molecular target: recombinant tick kinin receptor (BMLK3) (Rhipicephalus microplus, UniProt Q9NHA4); assay: Dose-response dual-addition calcium fluorescence assay on BMLK3 cells; assay type: cell-based; conditions: for EC50: read-out: BMLK3 EC50
[3] = tested on: Human dermal fibroblasts (HDF) cells; assay: Cytotoxicity assay (resazurin); assay type: cell-based; conditions: Human dermal fibroblasts cells; tested at 20 μcool L^−1
[4] = tested on: vector-only (V/O) CHO-K1 cells; assay: Dose-response dual-addition calcium fluorescence assay on vector-only cells; assay type: cell-based
[5] = tested on: Aedes aegypti kinin receptor; assay: Calcium fluorescence assay on recombinant mosquito kinin receptor (IGKN G12 cell line); assay type: cell-based; conditions: for calcium response, in words: 100 μmol L^−1
Experimental: Three identified potent small molecule antagonists, and as control, a small molecule of very low antagonistic activity, all identified as part of this study, were tested in the calcium fluorescence assay, as above, for their activity on the cell line expressing the Aedes aegypti kinin receptor (IGKN G12 cell line). Receptor cloning, expression and clonal cell selection were as described previously.^3′ The recombinant tick kinin receptor (BMLK3) was tested simultaneously as positive control for the assay. BMLK3 and IGKN G12 cells were seeded in 96-well-plates (Greiner Bio-One®, B/C 655097) at a density of […] cells in 100 μL maintenance medium. Cells were prepared as described above for the calcium fluorescence assay; and each well was added with 90 μL assay buffer (see Section 2.3, HHBS plus dye efflux inhibitor).
For each compound three 10× concentrations (100, 300, 1000 μmol L^−1) were prepared and 10 μL of each was added manually into one well of each cell line for a final concentration of 10, 30 and 100 […]. After 5 min incubation at room temperature, a kinin receptor agonist peptide, the kinin agonist analog 1728^28 [[Aib]FF[Aib]WGamide, RoyoBiotech, Shanghai, China] was added manually (50 μL; 3× stock in HHBS) into each well for a final concentration of 1 μmol L^−1. The cellular calcium response in RFU was immediately recorded continuously for 60 s with 3 s intervals between reads using a Clariostar plate reader. The average RFU of these 20 reads represented the raw response to each treatment. Three independent replicates were run for each concentration and compound. The percentage of signal reduction with respect to the control that contained solvent and the kinin agonist analog 1728 was calculated using the average RFU registered for the treatment with each small molecule divided by the average RFU recorded for the control (100%). Data analyses were performed with the percentage reduction of the three independent replicates. PRISM (Graphpad, San Diego. CA, USA) was utilized for analysis and graphics.

[6] = tested on: Rhodnius prolixus hindgut; conditions: cited from earlier work
[7] = tested on: Drosophila melanogaster renal organs; conditions: cited from earlier work
[8] = molecular target: T1, recombinant tick kinin receptor (BMLK3) (Rhipicephalus microplus, UniProt Q9NHA4); assay: dual-addition intracellular calcium fluorescence assay, antagonist dose-response (inhibition of Rhimi-K-1 response in BMLK3 cells); assay type: cell-based; conditions: FIG. 6 SAR analysis; BMLK3 CHO-K1 cells stably expressing R. microplus kinin receptor; agonist Rhimi-K-1 (QFSPWGamide) 1 μmol L^−1
T1 construct: intracellular calcium fluorescence; agonist Rhimi-K-1 (QFSPWGamide)
T1 sequence (Q9NHA4 1-397): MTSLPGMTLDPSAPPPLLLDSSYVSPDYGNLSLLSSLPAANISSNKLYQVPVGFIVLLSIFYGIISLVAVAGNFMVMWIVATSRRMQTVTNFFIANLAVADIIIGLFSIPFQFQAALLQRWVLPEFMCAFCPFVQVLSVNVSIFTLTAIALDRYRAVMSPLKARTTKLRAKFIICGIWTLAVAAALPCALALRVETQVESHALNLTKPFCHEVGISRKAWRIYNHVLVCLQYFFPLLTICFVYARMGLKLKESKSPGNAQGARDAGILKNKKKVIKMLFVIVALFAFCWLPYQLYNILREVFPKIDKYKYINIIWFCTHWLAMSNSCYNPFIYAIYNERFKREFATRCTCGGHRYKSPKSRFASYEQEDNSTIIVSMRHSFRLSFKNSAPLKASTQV

[9] = Table 5 analogs, V/O cells, read-out: V/O antagonist IC50
[10] = summary of 36 validated antagonist hits, vector-only cell (V/O)

Row | Compound | effect on hindgut contraction elicited by 1728, in words [1] | Inhibitory Efficacy at 12 μM ([2]; BMLK3 cells) | HDF average % growth inhibition [3] | EC50 ([4]; Table 5 analogs, V/O cells) | IC50 [4, 9] | EC50 [4, 10] | IC50 [4, 10] | calcium response, in words [5] | other results
1 | Cc1ccc(S(=O)(=O)NN2C(=O)C(=Cc3cccc4ccccc34)SC2=S)cc1 [SACC-0412062] | inhibited the increased rate of muscle contraction | 50.31% | 8.117% | 6.26 µM | 7.36 µM | 6.26 µM | 7.36 µM | – | –
2 | Cc1ccc(S(=O)(=O)NN2C(=O)C(=Cc3ccc(C(=O)O)cc3)SC2=S)cc1 [SACC-0412064] | did not differ | 0.31% | −7.067% | 17.4 µM | 1.47 µM | 17.4 µM | 1.47 µM | did not antagonize the calcium response | activity type in dose-response assay, in words ([2]; BMLK3 cells, Rhimi-K-1 1 μmol L^−1): very weak partial antagonists; EC50 ([2]; Table 5 analogs, first addition): 13 µM; IC50 ([2]; Table 5 analogs, second addition Rhimi-K-1 1 μmol L^−1, read-out: BMLK3 antagonist IC50): 0.118 µM; EC50 ([2]; summary of 36 validated antagonist hits, BMLK3 cells): 13 µM; IC50 ([2]; summary of 36 validated antagonist hits, BMLK3 cells, read-out: BMLK3 IC50): 0.118 µM
3 | CCOc1cc(C=C2SC(=S)N(NS(=O)(=O)c3ccc(C)cc3)C2=O)ccc1O [SACC-0412066] | inhibited the increased rate of muscle contraction | 79.17% | 2.02% | > 25 µM | 1.04 µM | > 25 µM | 1.04 µM | elicited a strong calcium response | hindgut contraction rate, in words ([1]; compound 10 μmol L^−1, 1 h after 1728 (data not shown)): no increase in the hindgut contraction rate was observed; effect on hindgut contraction elicited by 1728, in words ([1]; listed as -10412066): significantly reduced the mobility of the hindgut; effect on hindgut contraction elicited by 1728, in words ([1]; listed as SACC-0412006): did not observe any increase in the hindgut contraction rate; inhibition of response compared to control ([5]; 30 μmol L^−1, 1728 1 μmol L^−1): 84%
4 | [Aib]FF[Aib]WGamide [Molecule 1728] | – | – | – | – | – | – | – | – | increase of contraction rate, solvent plus 1728 group ([1]; 1728 10 μmol L^−1, solvent control of SACC-0412062 test (FIG. 8B), 1 h): two-fold; concentration inducing hindgut contraction [6]: 10^−16 M; increase of fluid secretion from renal organs, in words ([7]; 10^−7 M range): not active; concentration active in diuretic assays [7]: 25 µM
5 | C1C1═CC═C(\C═C2\SC(═O)N(NS(═O)(═O)C3═CC═CC═C3)C2═S)C═C1 [SACC-0064443] | – | – | – | – | – | – | – | – | IC50 [8]: 0.66 µM
